This note sets out measurements from patent US10017523B2, “NAMPT inhibitors and methods” (Genzyme Corporation, priority 2014, dated 2018).

SMILES strings stand for the structures.

Series [1] has as its system B-cell acute lymphocytic leukemia (SUP-B15). In words: Anti-proliferative activity on SUP-B15 cell line. The class given is cell-based. The settings on record: Homo sapiens, SUP-B15, 72 h, CellTiterGlo. The procedure:
(§1) Leukemia/Lymphoma cell lines (ATCC) were diluted in vendor-recommended media and incubated in the absence or presence of inhibitor for 72 hours at 37° C./5% CO2 prior to viability determination using CellTiterGlo (Promega) per manufacturer's instruction. The human cell lines studied include acute T-cell leukemia (JURKAT), chronic myelogenous leukemia (K562), and B-cell acute lymphocytic leukemia (NALM6 and SUP-B15).

Series [2] concerns acute T-cell leukemia (JURKAT). In words: Anti-proliferative activity on JURKAT cell line. The settings on record: Homo sapiens, 72 h, CellTiterGlo. The class given is cell-based. How it is done:
as §1

The subject of series [3] is primary human T cells. Kind of series: Anti-proliferative activity on T cells (CD3/CD28 stimulated, CellTiterGlo). The class given is cell-based. The settings on record: T-cell, 72 h, CD3/CD28 beads. The procedure: Fresh primary human T cells obtained from Analytical Biological Services (Wilmington, Del.) were diluted to 1×10^^6 cells per ml in AIM-V medium (Invitrogen), and stimulated with CD3/CD28 beads (Invitrogen) in the absence or presence of inhibitor for 72 hours at 37° C./5% CO2 prior to viability determination using CellTiterGlo (Promega) per manufacturer's instruction.
(§2) The 50% inhibitory concentration (IC50) is the concentration at which 50% of the maximal activity was inhibited.

Series [4] deals with T1, Recombinant NAMPT enzyme (Homo sapiens, UniProt P43490).
T1 construct: purchased MBL
T1 sequence (P43490 whole entry): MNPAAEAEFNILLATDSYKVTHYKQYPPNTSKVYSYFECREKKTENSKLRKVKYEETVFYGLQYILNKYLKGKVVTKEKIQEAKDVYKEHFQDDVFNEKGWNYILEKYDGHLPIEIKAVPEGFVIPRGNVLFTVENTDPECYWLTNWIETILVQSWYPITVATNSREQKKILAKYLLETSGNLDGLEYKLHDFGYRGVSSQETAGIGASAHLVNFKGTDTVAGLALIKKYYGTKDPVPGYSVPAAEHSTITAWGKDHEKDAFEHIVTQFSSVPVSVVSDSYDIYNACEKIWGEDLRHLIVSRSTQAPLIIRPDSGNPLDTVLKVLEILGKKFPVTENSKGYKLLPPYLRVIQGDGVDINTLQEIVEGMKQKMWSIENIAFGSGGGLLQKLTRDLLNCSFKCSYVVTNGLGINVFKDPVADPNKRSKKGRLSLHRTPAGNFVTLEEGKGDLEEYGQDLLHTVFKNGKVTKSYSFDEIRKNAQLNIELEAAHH
In words: Inhibition of NAMPT enzymatic activity. The settings on record: for IC50: 6 hours at 37° C., NMN product detected. The class given is biochemical. How it is done: Recombinant NAMPT enzyme (MBL) was briefly pre-incubated in the absence or presence of inhibitor followed by addition of nicotinamide. Enzymatic reaction was allowed to proceed for 6 hours at 37° C. Reaction was terminated and NMN reaction product detected using the method as described in: Zhang R Y, Qin Y, Lv X Q, Wang P, Xu T Y, Zhang L, Miao C Y., Anal. Biochem. 2011 May 1; 412(1):18-25.
as §2

The subject of series [5] is chronic myelogenous leukemia (K562). In words: Anti-proliferative activity on K562 cell line. The class given is cell-based. Particulars: Homo sapiens, K562, 72 h, CellTiterGlo. How it is done:
as §1
For orientation: ATP-based viability assays read luminescence as a measure of living cells.

For series [6], the system named is primary human B cells. In words: Anti-proliferative activity on B cells (anti-IgM stimulated, CellTiterGlo). The class given is cell-based. The settings on record: B-cell, 72 h, anti-IgM 10 ug/ml. The procedure: Fresh primary human B cells obtained from Analytical Biological Services (Wilmington, Del.) were diluted to 1×10^^6 cells per ml in AIM-V medium (Invitrogen), and stimulated with anti-IgM (10 ug/ml) (KPL) in the absence or presence of inhibitor for 72 hours at 37° C./5% CO2 prior to viability determination using CellTiterGlo (Promega) per manufacturer's instruction.
as §2

Series [7] has as its system B-cell acute lymphocytic leukemia (NALM6). In words: Anti-proliferative activity on NALM6 cell line. The class given is cell-based. Particulars: Homo sapiens, NALM-6, 72 h, CellTiterGlo. The procedure: as §1
The subject of series [8] is HCT116 solid tumor model. Kind of series: HCT116 tumor growth study. The class given is in vivo, Female athymic nude mice. The settings on record: oral twice daily. The procedure: Tumor Growth Study: Female athymic nude mice (Crl:NU(Ncr)-Foxn1nu, Charles River) (n=10/group) were injected with 5×10^6 HCT116 cells, and treatment was initiated at average tumor size of 100 mm^3. 4-(1′-isopropyl-4-oxospiro[chroman-2,4′-piperidin]-6-yl)-N-((3-methylisoxazol-5-yl)methyl)benzamide and vehicle control were administered orally twice daily for 8 days. Tumor size was measured twice weekly with calipers.
4-(1′-isopropyl-4-oxospiro[chroman-2,4′-piperidin]-6-yl)-N-((3-methylisoxazol-5-yl)methyl)benzamide was also tested in the HCT116 solid tumor model.

Series [9] relates to Sup-B15 cells. In words: Mechanism of action: NMN rescue of viability. The class given is cell-based, human. The settings on record: 200 μM NMN, 72 hours. How it is done: Sup-B15 cells (ATCC) were incubated in media lacking or containing 200 μM nicotinamide mononucleotide (NMN) (Sigma) in the absence or presence of inhibitor for 72 hours at 37° C./5% CO2 prior to viability determination using CellTiterGlo (Promega) per manufacturer's instruction.

Series [10] has as its system NALM6 leukemia model. Kind of series: NALM6 leukemia study (survival). The class given is in vivo, female CB17SCID/Crl mice. Particulars: i.p. twice daily for 35 days, compared with clofarabine. The procedure:
4-(1′-isopropyl-4-oxospiro[chroman-2,4′-piperidin]-6-yl)-N-((3-methylisoxazol-5-yl)methyl)benzamide was tested in the NALM6 leukemia model. […] 5×10^^6 NALM-6 cells were injected via tail vein into female CB17SCID/Crl mice (Charles River). One week later, 4-(1′-isopropyl-4-oxospiro[chroman-2,4′-piperidin]-6-yl)-N-((3-methylisoxazol-5-yl)methyl)benzamide was administered by i.p. injection twice daily for 35 days. Clofarabine was administered once daily by i.p. injection once daily for 5 days for four weeks. Study endpoint was survival time, and mice were sacrificed upon appearance of systemic signs of severe disease such as paralysis or cachexia.

Series [11] has as its target T2, Sup-B15 cell extract (Homo sapiens, UniProt P43490).
T2 construct: host or cells: Sup-B15 cells
Kind of series: Chemical proteomics pull-down from Sup-B15 cell extract. The settings on record: biotinylated derivative, streptavidin beads, elution with free compound, LC/MS. The class given is binding. How it is done:
Chemical proteomics. Sup-B15 cell extract was incubated with a biotinylated derivative of 4-(1′-isopropyl-4-oxospiro[chroman-2,4′-piperidin]-6-yl)-N-((3-methylisoxazol-5-yl)methyl)benzamide, followed by collection of compound/protein complexes with streptavidin beads (Invitrogen). […] Following SDS-PAGE, one prominent band was excised and identified by LC/MS as NAMPT.

T2 sequence (P43490 whole entry): as above

For `CCCN1CCC2(CC1)CC(=O)c1cc(-c3ccc(C(=O)NCc4cncc(F)c4)cc3)ccc1O2` [N-((5-fluoropyridin-3-yl)methyl)-4-(4-oxo-1′-propylspiro[chroman-2,4′-piperidin]-6-yl)benzamide], the IC50 is 0.556 nM in series [1]; 7.07 nM in series [2]; 1970 nM in [3]; 3 nM in [4]; 18.7 nM in series [5]; 7.4 nM in series [6]. The compound also yielded an IC50 in series [7] of 3.15 nM.
Consider `CCCN1CCC2(CC1)CC(=O)c1cc(-c3ccc(C(=O)NCc4cc(C)no4)cc3)ccc1O2` [N-((3-methylisoxazol-5-yl)methyl)-4-(4-oxo-1′-propylspiro[chroman-2,4′-piperidin]-6-yl)benzamide], for which the IC50 in series [1] was 2.07 nM; in series [2] it was 7.78 nM; in series [3], 677 nM; in [4], 2 nM; in [5], 25 nM; in [6], 12.9 nM. Besides, the IC50 in series [7] is 6.74 nM.
For `CC(C)N1CCC2(CC1)Oc1ccc(-c3ccc(C(=O)NCc4cncs4)cn3)cc1C(=O)N2C` [6-(1′-isopropyl-3-methyl-4-oxo-3,4 dihydrospiro[benzo[e][1,3]oxazine-2,4′-piperidin]-6-yl)-N-(thiazol-5-ylmethyl)nicotinamide], the IC50 is 2.14 nM in series [1]; 33 nM in series [2]; 1550 nM in [3]; 107 nM in series [4]; 75.7 nM in series [5]; 25.4 nM in [6]. In addition, in [7], the IC50 stood at 17.6 nM.
With `Cc1cc(CNC(=O)c2ccc(-c3ccc4c(c3)C(=O)CC3(CCN(C(C)C)CC3)O4)cc2)no1` [4-(1′-isopropyl-4-oxospiro[chroman-2,4′-piperidin]-6-yl)-N-((5-methylisoxazol-3-yl)methyl)benzamide], the IC50 is 1.17 nM in [1]; 10.7 nM in series [2]; 3240 nM in series [3]; 1 nM in series [4]; 63.6 nM in series [5]; 11.3 nM in series [6]. This compound registered an IC50 in series [7] of 2.69 nM.
With `COCCCCN1CCC2(CC1)CC(=O)c1cc(-c3ccc(C(=O)NCc4cncc(F)c4)cn3)ccc1O2` [N-((5-fluoropyridin-3-yl)methyl)-6-(1′-(4-methoxybutyl)-4-oxospiro[chroman-2,4′-piperidin]-6-yl)nicotinamide], the half-maximal inhibitory concentration (IC50) in series [1] worked out at 0.847 nM; in series [2], 12.1 nM; in [3], 5450 nM; in series [4], 4.2 nM; in series [5] it was 29.4 nM; in series [6], 10.9 nM. The IC50 in series [7] amounted to 4.83 nM.
Consider `CC(C)N1CCC2(CC1)Oc1ccc(-c3ccc(C(=O)NCc4cncc(F)c4)cc3)cc1C(=O)N2C` [N-((5-fluoropyridin-3-yl)methyl)-4-(1′-isopropyl-3-methyl-4-oxo-3,4-dihydrospiro[benzo[e][1,3]oxazine-2,4′-piperidin]-6-yl)benzamide], for which the IC50 amounted to 0.606 nM in series [1]; 7.04 nM in series [2]; 1000 nM in series [3]; 3.5 nM in [4]; 28.3 nM in series [5]; 6 nM in [6]. In [7], this compound returned an IC50 of 3.56 nM.
In the case of `CCCN1CCC2(C=Cc3cc(-c4ccc(C(=O)NCc5cc(C)no5)cn4)ccc3O2)CC1` [N-((3-methylisoxazol-5-yl)methyl)-6-(1′-propylspiro[chromene-2,4′-piperidin]-6-yl)nicotinamide], the IC50 is 1.04 nM in [1]; 6.38 nM in series [2]; 342 nM in series [3]; 1 nM in series [4]; 25.8 nM in series [5]; 4.4 nM in [6]. Further, the IC50 in [7] was 3.63 nM.
On to `Cc1cc(CNC(=O)c2ccc(-c3ccc4c(c3)C(=O)CC3(CCN(C(C)C)CC3)O4)cc2)on1` [4-(1′-isopropyl-4-oxospiro[chroman-2,4′-piperidin]-6-yl)-N-((3-methylisoxazol-5-yl)methyl)benzamide], for which the IC50 turned out to be 2.44 nM in [1]; 17.9 nM in series [2]; 4380 nM in series [3]; 0.9 nM in [4]; 68.1 nM in series [5]; 22.7 nM in [6]. In series [7], this compound displayed an IC50 of 15 nM. Also, in series [8], the “mortality in the treated group” value worked out at 10%. The “persistence of tumor growth delay after dosing was stopped” value in [8] is reported as “persisted for at least one week after dosing was stopped”. Also, in [8], the tumor growth result is “significant tumor growth delay”. For the same compound, in series [9], the “effect of NMN on anti-proliferative activity” value is “counteracted by NMN”. For the same compound, the survival result in [10] is listed as “significant survival benefit in this xenograft model, in excess of the standard of care (clofarabine)”. Moreover, the “inhibition of NAMPT enzyme activity” value in series [4] was “potently inhibits NAMPT enzyme activity”. Besides, the molecular target identified result in [11] is given as “nicotinamide phosphoribosyl transferase (NAMPT)”.
Consider `CCCCONC(=O)c1ccc(-c2ccc3c(c2)C(=O)CC2(CCN(C(C)C)CC2)O3)nc1` [N-butoxy-6-(1′-isopropyl-4-oxospiro[chroman-2,4′-piperidin]-6-yl)nicotinamide], for which the half-inhibitory concentration (IC50) was 3.02 nM in series [1]; 23.3 nM in [2]; 7370 nM in series [3]; 1.4 nM in series [4]; 282 nM in series [5]; 45 nM in series [6]. In addition, it took 15.6 nM to reach half-maximal inhibition in [7] (IC50).

A word on the IC50: it is the concentration needed to halve the response being measured.
